Source: patent US8835429B2, “Pyrimidine compounds, their use as mTOR kinase and Pl3 kinase inhibitors, and their syntheses” (Wyeth LLC, priority 2009, dated 2014)

What was measured:
[1] = test system: MDA468; test: In vitro cell growth assay (MTS), MDA468; type: cell-based; conditions: 72 h, human breast line MDA468, three days after drug treatment, read-out: MDA IC50
[2] = test system: LNCap; test: In vitro cell growth assay (MTS), LNCap; type: cell-based; conditions: LNCaP, 72 h, human prostate line, three days after drug treatment
[3] = biological target: PI3K-alpha (Homo sapiens, UniProt P42336); test: PI3K-alpha fluorescence polarization assay; type: biochemical; conditions: 20 μM PIP2, 25 μM ATP; read-out: PI3Kα IC50
How it was run: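 PIP2 (diC8) and ATP substrate with PI3K in 20 mM HEPES pH 7.5, 2 mM MgCl2, 0.05% CHAPS, 0.01% βME; 1% DMSO final; 30–60 min reaction. Stopped with EDTA plus GST-GRP (70 nM) and TAMRA probe (10 nM); FP (mP) read after 30–90 min, with no-enzyme controls.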

[4] = biological target: PI3K-gamma (Homo sapiens, UniProt P48736); test: PI3K-gamma fluorescence polarization assay; type: biochemical; conditions: 20 μM PIP2, 25 μM ATP; read-out: PI3Kγ IC50
Description: The reaction buffer was 20 mM HEPES, pH 7.5, 2 mM MgCl2, 0.05% CHAPS; and 0.01% βME (added fresh). The stop/detection buffer was 100 mM HEPES, pH 7.5, 4 mM EDTA, 0.05% CHAPS; ATP 20 mM in water; PIP2 (diC8, Echelon, Salt Lake City Utah cat #P-4508) 1 mM in water (MW=856.5). The GST-GRP was 1.75 mg/mL or 1.4 mg/mL in 10% glycerol. The red detector (TAMRA) was 2.5 μM. Nunc 384-well black polypropylene fluorescent plates were used for PI3K assays.
The assay is run by placing 5 μL of diluted enzyme per well, then 5 μL of diluted compound (or 9.5 μL enzyme then 0.5 μL compound in DMSO) is added and mixed. Then, 10 μL substrate is added to start the reaction. The samples are incubated 30-60 minutes, then the reaction is stopped by adding 20 μL stop/detector mix. PI3K is diluted with reaction buffer (e.g., 5 μL or 7.5 μL PI3K into 620 μL reaction buffer), and 5 μL of diluted enzyme is used per well. A 5 μL portion of reaction buffer or of drug diluted in buffer (e.g., 4 μL/100 so final DMSO is 1% in reaction) is added to each. Pipetting up and down mixes the samples. Alternatively, the enzyme can be diluted to 1215 μL. In this case 9.8 μL is added per well and 0.2 μL compound is added in DMSO.
To prepare 1 mL of substrate solution, 955 μL reaction buffer, 40 μL PIP2, and 2.5 μL ATP are mixed. 10 μL of substrate is added to each well to start the reaction. […] The stop/detector mix is prepared by mixing 4 μL red detector and 1.6 μL or 2.0 μL GST-GRP with 1 mL stop buffer, which results in 10 nM probe and 70 nM GST-GRP. 20 μL of the stop/detector mix is added to each well to stop the reaction. The plates are read after 30-90 minutes keeping the red probe solutions dark. For the zero time point, stop/detector mix is added to the enzyme just before adding substrate. For an extra control, stop/detector mix is added to buffer (no enzyme) and substrate or to just buffer (no substrate). […] The recommended reaction has 0.06 μL per 20 μL (0.015 μg/20 μL) or 0.01125 μg/15 μL or 0.75 μg/mL.
Plates are read on machines with filters for TAMRA. The units are mP with no enzyme controls reading app 190-220 mP units. Fully active enzyme reduces fluorescence polarization down to 70-100 mP after 30 minutes. An active compound raises the mP values halfway to control or to 120-150 mP units.

[5] = biological target: mTOR (Homo sapiens, UniProt P42345); test: mTOR enzyme assay (DELFIA, purified FLAG-TOR, His6-S6K substrate); type: biochemical; parameters: FLAG; conditions: 100 μM ATP, 2 hours
mTOR, sequence (P42345 1360-2549 limits assumed): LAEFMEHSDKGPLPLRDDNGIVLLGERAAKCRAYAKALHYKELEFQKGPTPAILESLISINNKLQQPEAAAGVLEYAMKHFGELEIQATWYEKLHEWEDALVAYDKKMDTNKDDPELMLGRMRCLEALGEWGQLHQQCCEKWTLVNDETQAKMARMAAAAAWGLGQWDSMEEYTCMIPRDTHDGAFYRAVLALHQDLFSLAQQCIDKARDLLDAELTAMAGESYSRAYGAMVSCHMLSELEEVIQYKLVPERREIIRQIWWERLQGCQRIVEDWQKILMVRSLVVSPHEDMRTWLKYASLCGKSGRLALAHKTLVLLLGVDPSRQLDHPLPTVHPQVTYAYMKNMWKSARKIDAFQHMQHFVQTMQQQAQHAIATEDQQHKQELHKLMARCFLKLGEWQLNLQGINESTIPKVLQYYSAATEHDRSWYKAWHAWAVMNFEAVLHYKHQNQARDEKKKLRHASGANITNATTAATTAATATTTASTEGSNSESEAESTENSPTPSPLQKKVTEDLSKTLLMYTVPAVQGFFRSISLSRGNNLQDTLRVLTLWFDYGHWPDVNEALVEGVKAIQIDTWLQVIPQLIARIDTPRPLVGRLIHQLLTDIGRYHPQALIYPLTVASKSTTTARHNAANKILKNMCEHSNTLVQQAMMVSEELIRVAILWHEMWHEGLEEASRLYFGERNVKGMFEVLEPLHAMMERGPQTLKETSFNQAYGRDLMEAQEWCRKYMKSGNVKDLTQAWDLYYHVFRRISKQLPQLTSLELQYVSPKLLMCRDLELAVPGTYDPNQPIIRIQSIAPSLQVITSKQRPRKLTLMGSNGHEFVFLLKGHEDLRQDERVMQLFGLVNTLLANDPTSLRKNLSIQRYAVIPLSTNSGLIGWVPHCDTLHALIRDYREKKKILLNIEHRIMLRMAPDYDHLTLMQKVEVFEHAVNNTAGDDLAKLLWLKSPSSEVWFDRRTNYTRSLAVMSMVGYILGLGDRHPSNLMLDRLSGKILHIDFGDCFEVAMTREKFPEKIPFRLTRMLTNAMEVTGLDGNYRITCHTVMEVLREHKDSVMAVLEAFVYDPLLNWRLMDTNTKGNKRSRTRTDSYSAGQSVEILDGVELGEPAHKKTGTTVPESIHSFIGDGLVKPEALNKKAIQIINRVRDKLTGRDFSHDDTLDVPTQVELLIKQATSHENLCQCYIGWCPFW

PI3K-alpha, sequence (P42336 whole entry, species assumed): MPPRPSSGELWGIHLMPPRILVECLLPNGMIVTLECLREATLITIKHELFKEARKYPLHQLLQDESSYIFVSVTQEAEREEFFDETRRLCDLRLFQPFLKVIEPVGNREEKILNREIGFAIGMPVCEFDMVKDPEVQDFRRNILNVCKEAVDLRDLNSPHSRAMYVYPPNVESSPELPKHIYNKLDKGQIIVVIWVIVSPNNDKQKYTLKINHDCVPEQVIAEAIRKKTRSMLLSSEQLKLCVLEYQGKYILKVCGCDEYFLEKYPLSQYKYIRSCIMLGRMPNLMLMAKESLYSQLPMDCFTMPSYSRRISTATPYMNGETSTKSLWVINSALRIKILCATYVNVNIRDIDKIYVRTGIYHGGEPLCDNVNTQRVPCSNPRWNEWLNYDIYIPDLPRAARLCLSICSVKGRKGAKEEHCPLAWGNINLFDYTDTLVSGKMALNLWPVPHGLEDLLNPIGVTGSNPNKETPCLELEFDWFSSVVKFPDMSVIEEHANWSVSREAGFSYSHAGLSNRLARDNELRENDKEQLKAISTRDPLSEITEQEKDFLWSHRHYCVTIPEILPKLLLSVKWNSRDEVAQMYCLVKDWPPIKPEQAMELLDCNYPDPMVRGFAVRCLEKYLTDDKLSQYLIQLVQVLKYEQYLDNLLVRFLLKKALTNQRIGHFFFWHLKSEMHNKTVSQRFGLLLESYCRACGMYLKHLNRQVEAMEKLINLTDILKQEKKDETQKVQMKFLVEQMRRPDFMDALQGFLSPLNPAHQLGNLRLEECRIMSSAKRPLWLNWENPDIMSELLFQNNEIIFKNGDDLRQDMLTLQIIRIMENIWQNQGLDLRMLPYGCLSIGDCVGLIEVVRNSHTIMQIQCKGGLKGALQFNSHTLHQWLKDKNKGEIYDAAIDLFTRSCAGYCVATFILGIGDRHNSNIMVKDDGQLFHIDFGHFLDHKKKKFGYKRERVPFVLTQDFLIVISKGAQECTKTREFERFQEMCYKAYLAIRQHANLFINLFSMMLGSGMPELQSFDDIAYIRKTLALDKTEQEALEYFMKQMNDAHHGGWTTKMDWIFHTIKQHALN
PI3K-alpha, sequence (P27986 whole entry partner, species assumed): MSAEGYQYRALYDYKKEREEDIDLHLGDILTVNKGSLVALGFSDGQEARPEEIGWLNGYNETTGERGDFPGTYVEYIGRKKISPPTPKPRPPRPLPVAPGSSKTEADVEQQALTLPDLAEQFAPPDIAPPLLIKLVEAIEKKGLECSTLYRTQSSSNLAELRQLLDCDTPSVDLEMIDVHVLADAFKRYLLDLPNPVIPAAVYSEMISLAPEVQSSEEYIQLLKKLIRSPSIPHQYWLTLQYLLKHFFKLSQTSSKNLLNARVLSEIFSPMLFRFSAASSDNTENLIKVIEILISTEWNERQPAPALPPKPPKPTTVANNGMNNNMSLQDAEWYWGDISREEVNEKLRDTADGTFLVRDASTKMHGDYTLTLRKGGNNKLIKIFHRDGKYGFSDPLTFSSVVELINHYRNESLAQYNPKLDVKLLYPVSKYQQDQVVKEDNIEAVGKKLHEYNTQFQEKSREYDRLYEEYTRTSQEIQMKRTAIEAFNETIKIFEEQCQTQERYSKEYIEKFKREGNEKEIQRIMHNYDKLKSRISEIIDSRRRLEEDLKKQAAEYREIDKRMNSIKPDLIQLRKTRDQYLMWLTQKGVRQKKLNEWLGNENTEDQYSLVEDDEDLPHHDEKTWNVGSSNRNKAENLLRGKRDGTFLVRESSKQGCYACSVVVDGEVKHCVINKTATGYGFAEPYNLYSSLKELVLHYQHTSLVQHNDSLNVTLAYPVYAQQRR
PI3K-gamma, sequence (P48736 whole entry, species assumed): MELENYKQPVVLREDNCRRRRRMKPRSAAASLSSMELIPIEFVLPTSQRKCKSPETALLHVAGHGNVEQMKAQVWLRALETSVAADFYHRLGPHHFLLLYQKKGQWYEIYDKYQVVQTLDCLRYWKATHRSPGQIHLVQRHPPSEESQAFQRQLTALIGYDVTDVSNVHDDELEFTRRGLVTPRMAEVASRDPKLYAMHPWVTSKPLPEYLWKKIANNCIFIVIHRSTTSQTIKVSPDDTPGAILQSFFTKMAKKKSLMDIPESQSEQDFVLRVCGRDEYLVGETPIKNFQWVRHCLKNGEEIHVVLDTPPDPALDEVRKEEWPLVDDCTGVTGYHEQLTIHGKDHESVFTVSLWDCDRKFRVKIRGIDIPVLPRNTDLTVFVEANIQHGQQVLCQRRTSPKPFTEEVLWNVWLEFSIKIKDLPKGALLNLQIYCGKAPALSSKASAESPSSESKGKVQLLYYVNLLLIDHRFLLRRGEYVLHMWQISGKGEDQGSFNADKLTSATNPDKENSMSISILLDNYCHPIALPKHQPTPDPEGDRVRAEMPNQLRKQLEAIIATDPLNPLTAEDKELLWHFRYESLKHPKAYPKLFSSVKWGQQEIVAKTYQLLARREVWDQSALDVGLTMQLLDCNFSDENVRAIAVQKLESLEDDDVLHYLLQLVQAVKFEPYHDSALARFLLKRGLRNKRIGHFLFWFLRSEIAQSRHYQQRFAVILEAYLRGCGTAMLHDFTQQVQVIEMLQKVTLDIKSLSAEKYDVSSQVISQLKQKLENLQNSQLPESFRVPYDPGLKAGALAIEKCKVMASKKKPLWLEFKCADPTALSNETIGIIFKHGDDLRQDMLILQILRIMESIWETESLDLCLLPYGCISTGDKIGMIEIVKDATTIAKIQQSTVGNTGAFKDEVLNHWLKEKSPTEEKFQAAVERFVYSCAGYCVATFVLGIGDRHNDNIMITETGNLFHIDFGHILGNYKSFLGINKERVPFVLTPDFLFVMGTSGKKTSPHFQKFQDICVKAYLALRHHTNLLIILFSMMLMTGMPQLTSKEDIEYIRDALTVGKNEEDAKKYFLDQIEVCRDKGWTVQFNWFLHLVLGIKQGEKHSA

CN1CCN(Cc2ccc(NC(=O)Nc3ccc(-c4nc(N5C6CCC5COC6)cc(N5C[C@H]6C[C@@H]5CO6)n4)cc3)cc2)CC1 [1-{4-[(4-methylpiperazin-1-yl)methyl]phenyl}-3-(4-{4-[(1R,4R)-2-oxa-5-azabicyclo[2.2.1]hept-5-yl]-6-(3-oxa-8-azabicyclo[3.2.1]oct-8-yl)pyrimidin-2-yl}phenyl)urea]
IC50 [1]: 190 nM
IC50 [2]: 180 nM
IC50 [3]: 1190 nM
IC50 [4]: 7590 nM
IC50 [5]: 9.9 nM

CN1CCN(c2ccc(NC(=O)Nc3ccc(-c4nc(N5C6CCC5COC6)c(Cl)c(N5C6CCC5COC6)n4)cc3)cc2)CC1 [1-[4-(5-chloro-4,6-di-3-oxa-8-azabicyclo[3.2.1]oct-8-ylpyrimidin-2-yl)phenyl]-3-[4-(4-methylpiperazin-1-yl)phenyl]urea]
IC50 [1]: 210 nM
IC50 [2]: 65 nM
IC50 [3]: 998 nM
IC50 [4]: 1020 nM
IC50 [5]: 0.505 nM

CN(C)Cc1ccc(NC(=O)Nc2ccc(-c3nc(N4C5CCC4COC5)cc(N4C[C@@H]5C[C@H]4CO5)n3)cc2)cc1 [1-{4-[(dimethylamino)methyl]phenyl}-3-(4-{4-[(1S,4S)-2-oxa-5-azabicyclo[2.2.1]hept-5-yl]-6-(3-oxa-8-azabicyclo[3.2.1]oct-8-yl)pyrimidin-2-yl}phenyl)urea]
IC50 [1]: 150 nM
IC50 [2]: 60 nM
IC50 [3]: 1240 nM
IC50 [4]: ≥ 10000 nM
IC50 [5]: 16 nM

CN(C)Cc1cc(N2C3CCC2COC3)nc(-c2ccc(NC(=O)Nc3cccnc3)cc2)n1 [1-(4-{4-[(dimethylamino)methyl]-6-(3-oxa-8-azabicyclo[3.2.1]oct-8-yl)pyrimidin-2-yl}phenyl)-3-pyridin-3-ylurea]
IC50 [1]: 1000 nM
IC50 [2]: 600 nM
IC50 [3]: 3160 nM
IC50 [4]: > 10000 nM
IC50 [5]: 10.8 nM

CC(C)Nc1cc(N2C3CCC2COC3)nc(-c2ccc(NC(=O)Nc3ccc(CN4CCCC4)cc3)cc2)n1 [1-(4-{4-[(1-methylethyl)amino]-6-(3-oxa-8-azabicyclo[3.2.1]oct-8-yl)pyrimidin-2-yl}phenyl)-3-[4-(pyrrolidin-1-ylmethyl)phenyl]urea]
IC50 [1]: 80 nM
IC50 [2]: 110 nM
IC50 [3]: 1090 nM
IC50 [4]: 3580 nM
IC50 [5]: 2.95 nM

CC(C)Nc1cc(N2C3CCC2COC3)nc(-c2ccc(NC(=O)Nc3ccc(CN(C)C)cc3)cc2)n1 [1-{4-[(dimethylamino)methyl]phenyl}-3-(4-{4-[(1-methylethyl)amino]-6-(3-oxa-8-azabicyclo[3.2.1]oct-8-yl)pyrimidin-2-yl}phenyl)urea]
IC50 [1]: 120 nM
IC50 [2]: 120 nM
IC50 [3]: 1190 nM
IC50 [4]: 3880 nM
IC50 [5]: 2.65 nM

CN(C)CCOc1ccc(NC(=O)Nc2ccc(-c3nc(NCCS(C)(=O)=O)cc(N4C5CCC4COC5)n3)cc2)cc1 [1-{4-[2-(dimethylamino)ethoxy]phenyl}-3-{4-[4-{[2-(methylsulfonyl)ethyl]amino}-6-(3-oxa-8-azabicyclo[3.2.1]oct-8-yl)pyrimidin-2-yl]phenyl}urea]
IC50 [1]: 420 nM
IC50 [2]: 480 nM
IC50 [3]: 1860 nM
IC50 [4]: ≥ 10000 nM
IC50 [5]: 26 nM

C[C@@H]1COCCN1c1cc(N2C3CCC2COC3)nc(-c2ccc(NC(=O)Nc3ccc(CN4CCN(C)CC4)cc3)cc2)n1 [1-(4-{4-[(3R)-3-methylmorpholin-4-yl]-6-(3-oxa-8-azabicyclo[3.2.1]oct-8-yl)pyrimidin-2-yl}phenyl)-3-{4-[(4-methylpiperazin-1-yl)methyl]phenyl}urea]
IC50 [1]: 12 nM
IC50 [2]: 6 nM
IC50 [3]: 1300 nM
IC50 [4]: 8480 nM
IC50 [5]: 1.2 nM

CC(C)Nc1cc(N2C3COCC2COC3)nc(-c2ccc(NC(=O)Nc3ccc(OCCN(C)C)cc3)cc2)n1 [1-{4-[2-(dimethylamino)ethoxy]phenyl}-3-{4-[4-(3,7-dioxa-9-azabicyclo[3.3.1]non-9-yl)-6-(isopropylamino)pyrimidin-2-yl]phenyl}urea]
IC50 [1]: 600 nM
IC50 [2]: 420 nM
IC50 [3]: 1760 nM
IC50 [4]: 8630 nM
IC50 [5]: 16.5 nM

CN1CCN(c2ccc(NC(=O)Nc3ccc(-c4nc(C5CCOCC5)cc(N5C6CCC5COC6)n4)cc3)cn2)CC1 [1-[6-(4-methylpiperazin-1-yl)pyridin-3-yl]-3-{4-[4-(3-oxa-8-azabicyclo[3.2.1]oct-8-yl)-6-(tetrahydro-2H-pyran-4-yl)pyrimidin-2-yl]phenyl}urea]
IC50 [1]: 4 nM
IC50 [2]: ≤ 0.8 nM
IC50 [3]: 2590 nM
IC50 [4]: ≥ 10000 nM
IC50 [5]: 1.22 nM

CCNC(=O)Nc1ccc(-c2nc(CN(C)C)cc(N3C4CCC3COC4)n2)cc1 [1-(4-{4-[(dimethylamino)methyl]-6-(3-oxa-8-azabicyclo[3.2.1]oct-8-yl)pyrimidin-2-yl}phenyl)-3-ethylurea]
IC50 [1]: 3000 nM
IC50 [2]: 1100 nM
IC50 [3]: 6240 nM
IC50 [4]: 12600 nM
IC50 [5]: 40 nM

CC(C)N1CCN(C(=O)c2ccc(NC(=O)Nc3ccc(-c4nc(C5CCOCC5)cc(N5C6CCC5COC6)n4)cc3)cc2)CC1 [1-(4-{[4-(1-methylethyl)piperazin-1-yl]carbonyl}phenyl)-3-{4-[4-(3-oxa-8-azabicyclo[3.2.1]oct-8-yl)-6-(tetrahydro-2H-pyran-4-yl)pyrimidin-2-yl]phenyl}urea]
IC50 [1]: 0.8 nM
IC50 [2]: ≤ 0.8 nM
IC50 [3]: 353 nM
IC50 [4]: 3210 nM
IC50 [5]: 0.295 nM

CN(C)CCOc1ccc(NC(=O)Nc2ccc(-c3nc(N4C5CCC4COC5)cc(N4C[C@H]5C[C@@H]4CO5)n3)cc2)cc1 [1-{4-[2-(dimethylamino)ethoxy]phenyl}-3-(4-{4-[(1R,4R)-2-oxa-5-azabicyclo[2.2.1]hept-5-yl]-6-(3-oxa-8-azabicyclo[3.2.1]oct-8-yl)pyrimidin-2-yl}phenyl)urea]
IC50 [1]: 130 nM
IC50 [2]: 120 nM
IC50 [3]: 2740 nM
IC50 [4]: 9470 nM
IC50 [5]: 12 nM

CN1CCN(Cc2ccc(NC(=O)Nc3ccc(-c4nc(NCCS(C)(=O)=O)cc(N5C6CCC5COC6)n4)cc3)cc2)CC1 [1-{4-[(4-methylpiperazin-1-yl)methyl]phenyl}-3-{4-[4-{[2-(methylsulfonyl)ethyl]amino}-6-(3-oxa-8-azabicyclo[3.2.1]oct-8-yl)pyrimidin-2-yl]phenyl}urea]
IC50 [1]: 500 nM
IC50 [2]: 400 nM
IC50 [3]: 3980 nM
IC50 [4]: 10800 nM
IC50 [5]: 17.5 nM

CNC(=O)Nc1ccc(-c2nc(CN(C)C)cc(N3C4CCC3COC4)n2)cc1 [1-(4-{4-[(dimethylamino)methyl]-6-(3-oxa-8-azabicyclo[3.2.1]oct-8-yl)pyrimidin-2-yl}phenyl)-3-methylurea]
IC50 [1]: 7000 nM
IC50 [2]: 3600 nM
IC50 [3]: 8000 nM
IC50 [4]: > 10000 nM
IC50 [5]: 77 nM

CC(C)N1CCN(C(=O)c2ccc(NC(=O)Nc3ccc(-c4nc(N5C6CCC5COC6)cc(N5CCOC[C@H]5C)n4)cc3)cc2)CC1 [1-(4-{[4-(1-methylethyl)piperazin-1-yl]carbonyl}phenyl)-3-(4-{4-[(3R)-3-methylmorpholin-4-yl]-6-(3-oxa-8-azabicyclo[3.2.1]oct-8-yl)pyrimidin-2-yl}phenyl)urea]
IC50 [1]: 0.8 nM
IC50 [2]: ≤ 0.8 nM
IC50 [3]: 123 nM
IC50 [4]: 1200 nM
IC50 [5]: 0.6 nM
